Laboratory results: publication PMC10671052, “Naphthyl-Substituted Indole and Pyrrole Carboxylic Acids as Effective Antibiotic Potentiators—Inhibitors of Bacterial Cystathionine γ-Lyase” (International Journal of Molecular Sciences, 2023)
Like-named read-outs stand apart in the source and are kept apart here.

Legend:
[1] = test system: P. aeruginosa GIMC5016:PA1840/36/2015; assay: Susceptibility of isolate to main antimicrobial agents; type: cell-based
[2] = test system: A. baumannii GIMC5509:ABT-52Ts19; assay: MIC of antibiotics alone and with potentiators, clinical isolate; conditions: A. baumannii GIMC5509:ABT-52Ts19, no potentiator
Method: (§3) Overnight (ON) culture of a specific strain was grown in the liquid Luria–Bertani nutrient medium (LB broth, BD Difco) for 18 h at 37 °C, with agitation at 180 rpm using an Innova 44R orbital shaker (Eppendorf, Hamburg, Germany). After a certain period, 50 µL of the ON culture was transferred into 5 mL of the LB medium and grown for 3 h at 37 °C with agitation. Growth in the liquid medium was assessed by means of turbidity of the suspension, measured using a Densi-La-Meter II densitometer (Erba Lachema s.r.o., Brno, Czech Republic). Then, the bacterial suspension was diluted to the concentration 10^6 cells/mL with sterile LB and used as a seed culture [38, 39].
(§4) For the assessment of MICs, 96-well microtiter plates were utilized at 200 µL of a medium per well. Each well was filled with 100 µL of the seed culture. After that, 10 µL of a solution of each tested synthetic compound (potentiators) was added into each experimental well. Finally, 90 µL of twofold serial dilutions of an antibiotic in a sterile LB was added into individual wells.
(§5) As a positive control, we set up wells with 100 µL of the bacterial culture and 100 µL of the sterile LB medium. […] Negative-control wells contained 200 µL of the sterile medium. The plates were incubated in a thermostat for 18–20 h at 37 °C. The bacterial growth was assessed as optical density at 600 nm on a CLARIOstar microplate reader (BMG LABTECH GmbH, Ortenberg, Germany)).

[3] = test system: P. aeruginosa GIMC5016:PA1840/36/2015; assay: as above; conditions: P. aeruginosa GIMC5016:PA1840/36/2015, no potentiator
Method: as §3, §4, §5

[4] = HEK293 cytotoxicity assay (Alamar Blue); type: cell-based; conditions: human, HEK293, 72 h
Method: The HEK 293 cell line was obtained from the European Collection of Authenticated Cell Cultures (ECACC, cat. # 85120602, Salisbury, UK). The cells were grown in a monolayer culture in Dulbecco’s Modified Eagle’s Medium (DMEM) (PanEco, Moscow, Russia), supplemented with 2 mM L-glutamine, 1% of a penicillin/streptomycin solution (Capricorn Scientific, Ebsdorfergrund, Germany), and 10% of heat inactivated fetal bovine serum (HyClone, Cytiva, Marlborough, MA, USA) in a humidified atmosphere containing 5% of CO2 at 37 °C (Binder, Germany). For the assay, HEK 293 cells were seeded in a 96-well plate (Corning, NY, USA) in 100 μL of the complete culture medium, at a final density of 2 × 10^3 cells/well, and were cultured for 24 h for proper attachment. Subsequently, the medium was removed, and the cells were exposed to a tested inhibitor at different concentrations for 72 h in 100 μL of the fresh complete culture medium. The sensitivity of the cells to the compounds was detected using the vital dye Alamar Blue (Invitrogen, San Diego, CA, USA). The Alamar Blue assay was performed according to the procedure described by O’Brien et al.. After incubation with the tested bCSE inhibitors, 10 μL of the Alamar Blue reagent was added into each well, the cell culture plates were returned to the humidified incubator, and the fluorescence was read after 3 h. The plates were exposed to an excitation light of 545 nm wavelength, and emission at 600 nm was measured on the CLARIOstar Plus (BMG LABTECH GmbH, Ortenberg, Germany). To determine half-maximal cytotoxic concentration (CC50), a four-parameter sigmoidal curve model (GraphPad Prism 8 software) was fitted to the measurement data.

[5] = target: T1, human cystathionine-γ-lyase (hCSE) (Homo sapiens, UniProt P32929); assay: IC50 assay: inhibition of H2S production by purified hCSE, WSP5 fluorescent probe; type: biochemical; conditions: for IC50: purified hCSE 0.02 μM, 100 μM L-cysteine, WSP5 probe, mean ± SD
T1 construct: His6-TEV (N, cleaved yes); host or cells: E. coli
T1 sequence (P32929 whole entry): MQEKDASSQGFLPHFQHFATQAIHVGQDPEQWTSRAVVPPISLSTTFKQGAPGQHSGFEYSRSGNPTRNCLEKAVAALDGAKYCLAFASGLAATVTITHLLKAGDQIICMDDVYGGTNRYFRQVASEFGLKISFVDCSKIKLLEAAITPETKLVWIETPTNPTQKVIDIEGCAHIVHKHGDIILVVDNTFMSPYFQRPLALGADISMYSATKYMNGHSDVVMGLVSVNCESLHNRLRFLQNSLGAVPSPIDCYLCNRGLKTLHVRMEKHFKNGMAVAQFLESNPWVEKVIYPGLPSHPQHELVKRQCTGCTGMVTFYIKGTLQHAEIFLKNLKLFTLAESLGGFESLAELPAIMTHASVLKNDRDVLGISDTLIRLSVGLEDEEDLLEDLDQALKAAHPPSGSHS
Method: (§1) Fluorescence spectrophotometry-based inhibitory activity toward purified bCSE and hCSE was measured in a 96-well nonbinding black plate (Greiner, Kremsmunster, Austria) at 100 μL of the reaction mixture per well. bCSE and hCSE (0.02 μM) were preincubated in a thermoshaker (Biosan, Riga, Latvia) (30 °C, 300 rpm) for 40 min in 50 mM sodium phosphate buffer (pH 8.0), supplemented with 10 μM pyridoxal 5′-phosphate (Sigma-Aldrich, St. Louis, MO, USA), 0.1% of Tween 20 (Sigma-Aldrich, St. Louis, MO, USA), and 1.2 μM Washington State Probe-5 (Cayman Chemical, Ann Arbor, MI, USA) (excitation: 500 nm, emission: 530 nm) at different concentrations of a tested inhibitor. The reaction was initiated by the addition of 100 μM L-cysteine (TCI, Chennai, Tamil Nadu, India) in 50 mM sodium phosphate buffer pH 8.0 to the reaction mixture, and the enzymatic activity was monitored for 12 h using a CLARIOstar Plus instrument (BMG LABTECH GmbH, Ortenberg, Germany). The 100 µM L-cysteine concentration used in the experiments corresponds to the maximal reported intracellular concentration in bacteria. The data were normalized to the positive and negative controls, and IC50 values were obtained by fitting to a four-parameter sigmoidal curve (inhibitor vs. response, variable slope model) in GraphPad Prism 8 software (GraphPad by Dotmatics, Boston, MA, USA). Each experiment was conducted with 2–3 technical replicates. IC50 values were means of at least two independent experiments.
(§2) For the production of S. aureus cystathionine-γ-lyase (bCSE) and of human cystathionine-γ-lyase (hCSE), plasmids pSUMO:saCSE (Addgene # 54336) and pNIC28-Bsa4 (Addgene # 42365) were employed. Cultivation of a competent E. coli cell strain (Thermo Fisher Scientific, Waltham, MA, USA), transformed with a target plasmid, was carried out on a selective solid medium with kanamycin. Bacterial cells harboring the plasmid vector were cultured at 37 °C and 180 rpm until OD600 = 0.65. Then, isopropyl β-D1-thiogalactopyranoside (IPTG) was added to a final concentration of 1 mM. To obtain bCSE, the cells were cultured for 3.5 h at 37 °C; to obtain hCSE, the cells were cultured for 18–20 h at 25 °C. After centrifugation, cells were resuspended in a buffer composed of 50 mM Tris–HCl, at a pH of 8.0, and 300 mM sodium chloride. After that, the cells were lysed by ultrasonication, with a pulse duration of 15 s and an interval between pulses of 15 s. The amplitude of the ultrasonic vibrations was 50% of the maximum. After lysis, samples were centrifuged for 15 min (20,000× g at 4 ℃). The pH of the supernatant obtained after the centrifugation was adjusted to 7.5 by the addition of a 1 M solution of Tris–OH. Then, the test sample was subjected to filtration through a polyethersulfone membrane with a pore diameter of 0.22 μm.

[6] = target: S. aureus cystathionine-γ-lyase (bCSE) (Staphylococcus aureus, UniProt A0A0H3K724); assay: IC50 assay: inhibition of H2S production by purified bCSE, WSP5 fluorescent probe; type: biochemical
S. aureus cystathionine-γ-lyase (bCSE), sequence (A0A0H3K724 entry or part of it): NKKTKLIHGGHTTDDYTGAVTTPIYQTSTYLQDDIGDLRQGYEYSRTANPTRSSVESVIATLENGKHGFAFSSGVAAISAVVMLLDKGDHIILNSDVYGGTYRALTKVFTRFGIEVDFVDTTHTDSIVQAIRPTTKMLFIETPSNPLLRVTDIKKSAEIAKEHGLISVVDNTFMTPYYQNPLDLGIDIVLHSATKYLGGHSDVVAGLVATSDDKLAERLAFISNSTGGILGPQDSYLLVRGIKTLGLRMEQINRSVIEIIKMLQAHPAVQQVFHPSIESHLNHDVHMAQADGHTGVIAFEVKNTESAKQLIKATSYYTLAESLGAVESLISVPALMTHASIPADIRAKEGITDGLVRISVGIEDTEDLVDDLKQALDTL
Method: as §1, §2

in vitro = assay: in vitro
Method: A test compound (final concentration 10 μM) was incubated at 37 °C in SGF, SIF, or human plasma for 2, 2, or 4 h, respectively. 100 μL aliquots were taken from each sample and 300 μL of acetonitrile containing an internal standard was added. […] All compounds were tested in triplicate. The percentage of a remaining compound after incubation was determined based on the chromatographic peak area of the sample after incubation and that of time zero (freshly prepared and injected) sample.

[7] = read-out: IC50 biochemical assay hCSE
[8] = IC50 (uM), bCSE enzymatic IC50, rounded, repeated in Table S13
[9] = IC50 (uM), bCSE enzymatic IC50, rounded, repeated in Table S14
[10] = IC50 (uM), bCSE enzymatic IC50, rounded, repeated in Table S15
[11] = IC50 biochemical assay bCSE, purified bCSE 0.02 μM, 100 μM L-cysteine, WSP5 probe, mean ± SD

CC(C)(O/N=C(\C(=O)N[C@@H]1C(=O)N2C(C(=O)[O-])=C(C[n+]3ccccc3)CS[C@H]12)c1csc(N)n1)C(=O)O [ceftazidime]
susceptibility of isolate (Sensitive to / Resistant to) [1]: Resistant to

Cc1nnc(SCC2=C(C(=O)O)N3C(=O)[C@@H](NC(=O)Cn4cnnn4)[C@H]3SC2)s1 [cefazolin]
susceptibility of isolate (Sensitive to / Resistant to) [1]: Resistant to

C[C@@H](O)[C@H]1C(=O)N2C(C(=O)O)=C(S[C@@H]3CN[C@H](C(=O)N(C)C)C3)[C@H](C)[C@H]12 [Meropenem, meropenem]
MIC of antibiotic alone [2]: 64 µg/mL
susceptibility of isolate (Sensitive to / Resistant to) [1]: Resistant to
MIC of antibiotic alone [3]: 16 µg/mL

CO/N=C(\C(=O)N[C@@H]1C(=O)N2C(C(=O)O)=C(CSc3nc(=O)c(=O)[nH]n3C)CS[C@H]12)c1csc(N)n1 [ceftriaxone]
susceptibility of isolate (Sensitive to / Resistant to) [1]: Resistant to

O=C(O)c1cccn1Cc1ccc2ccccc2c1 [Compound 5b]
CC50 at 72 h ([4]; HEK293 cells): 848 ± 72.2 µM
IC50 [5, 7]: > 500 µM
IC50 [6, 8]: > 500 µM
IC50 [6, 9]: > 500 µM
IC50 [6, 10]: > 500 µM
IC50 [6, 11]: > 500 µM

O=C(O)c1ccc2ccn(Cc3ccc4ccccc4c3)c2c1 [Compound 3b]
CC50 at 72 h ([4]; HEK293 cells): 528 ± 47.1 µM
IC50 [5, 7]: > 500 µM
IC50 [6, 9]: 141 µM
IC50 [6, 10]: 141 µM
IC50 [6, 11]: 148 ± 46.4 µM

COc1cccc2c1C(=O)c1c(O)c3c(c(O)c1C2=O)C[C@@](O)(C(=O)CO)C[C@@H]3O[C@H]1C[C@H](N)[C@H](O)[C@H](C)O1 [Doxorubicin, reference compound]
CC50 at 72 h ([4]; HEK293 cells): 1.3 ± 0.71 µM

C[C@H]1COc2c(N3CCN(C)CC3)c(F)cc3c(=O)c(C(=O)O)cn1c23 [levofloxacin]
susceptibility of isolate (Sensitive to / Resistant to) [1]: Resistant to

CC(C)[N+](C)(CCOC(=O)C1c2ccccc2Oc2ccccc21)C(C)C [Propantheline, propantheline bromide, reference compound]
Stability in human plasma, % Remaining at 4 h (in vitro; 4 h, 10 μM): 0.2%
remaining at 4 h, 10 μM (in vitro; human, plasma, Stability in human plasma, % Remaining at 4 h): 0.21 ± 0.04%

O=C(O)c1cccn1Cc1cccc2ccccc12 [Compound 5a]
CC50 at 72 h ([4]; HEK293 cells): 460 ± 51.1 µM
IC50 [5, 7]: > 500 µM
IC50 [6, 8]: 289 µM
IC50 [6, 9]: 289 µM
IC50 [6, 10]: 289 µM
IC50 [6, 11]: 289 ± 30.4 µM

C#CC[C@H](N)C(=O)O (racemic) [PAG, DL-propargylglycine, reference compound]
Hill slope of dose-response curve toward hCSE [5]: ~1.0
IC50 [5, 7]: 0.17 ± 0.02 µM
Hill slope of dose-response curve toward bCSE [6]: approximately two
IC50 [6, 11]: 24.3 ± 0.7 µM

NCC[C@H](O)C(=O)N[C@@H]1C[C@H](N)[C@@H](O[C@H]2O[C@H](CN)[C@@H](O)[C@H](O)[C@H]2O)[C@H](O)[C@H]1O[C@H]1O[C@H](CO)[C@@H](O)[C@H](N)[C@H]1O [amikacin]
susceptibility of isolate (Sensitive to / Resistant to) [1]: Resistant to

O=C(O)c1cn(C2CC2)c2cc(N3CCNCC3)c(F)cc2c1=O [ciprofloxacin]
susceptibility of isolate (Sensitive to / Resistant to) [1]: Resistant to

CO/N=C(\C(=O)N[C@@H]1C(=O)N2C(C(=O)[O-])=C(C[N+]3(C)CCCC3)CS[C@H]12)c1csc(N)n1 [Cefepim, cefepime]
MIC of antibiotic alone [2]: > 512 µg/mL
susceptibility of isolate (Sensitive to / Resistant to) [1]: Resistant to
MIC of antibiotic alone [3]: 256 µg/mL

CNC(C)C1CCC(N)C(OC2C(N)CC(N)C(OC3OCC(C)(O)C(NC)C3O)C2O)O1 (centres unmarked) [Gentamicin, gentamicin]
susceptibility of isolate (Sensitive to / Resistant to) [1]: Resistant to
MIC of antibiotic alone [3]: > 512 µg/mL

O=C(O)c1cn(Cc2ccc3ccccc3c2)c2ccccc12 [Compound 1b]
CC50 at 72 h [4]: 423 ± 71.8 µM
activity toward hCSE (in words) [5]: did not show noticeable activity
IC50 ([5]; IC50 biochemical assay hCSE): > 500 µM
activity toward bCSE (in words) [6]: did not show noticeable activity
IC50 [6, 8]: > 500 µM
IC50 [6, 9]: > 500 µM
IC50 [6, 11]: > 500 µM

O=C(O)c1cc2ccccc2n1Cc1ccc2ccccc2c1 [Compound 2b]
CC50 at 72 h ([4]; HEK293 cells): 368 ± 32.8 µM
IC50 [5, 7]: 285 ± 14.6 µM
IC50 [6, 8]: 71 µM
IC50 [6, 9]: 71 µM
IC50 [6, 10]: 71 µM
IC50 [6, 11]: 71.1 ± 4.2 µM

O=C(O)c1ccc2c(ccn2Cc2ccc3ccccc3c2)c1 [Compound 4b]
CC50 at 72 h ([4]; HEK293 cells): 217 ± 93.2 µM
IC50 [5, 7]: > 500 µM
IC50 [6, 8]: 110 µM
IC50 [6, 9]: 110 µM
IC50 [6, 10]: 110 µM
IC50 [6, 11]: 110 ± 11.7 µM

O=C(O)c1ccc2ccn(Cc3cccc4ccccc34)c2c1 [Compound 3a]
CC50 at 72 h ([4]; HEK293 cells): 452 ± 21.5 µM
IC50 [5, 7]: 472 ± 37.3 µM
IC50 [6, 8]: 79 µM
IC50 [6, 9]: 79 µM
IC50 [6, 10]: 79 µM
IC50 [6, 11]: 79.3 ± 5.9 µM

NC[C@H]1O[C@H](O[C@H]2[C@H](O)[C@@H](O[C@H]3O[C@H](CO)[C@@H](O)[C@H](N)[C@H]3O)[C@H](N)C[C@@H]2N)[C@H](N)C[C@@H]1O [tobramycin]
susceptibility of isolate (Sensitive to / Resistant to) [1]: Resistant to

CCN1CCN(C(=O)N[C@@H](C(=O)N[C@@H]2C(=O)N3[C@@H]2SC(C)(C)[C@@H]3C(=O)O)c2ccccc2)C(=O)C1=O [piperacillin]
susceptibility of isolate (Sensitive to / Resistant to) [1]: Resistant to

CO/N=C(\C(=O)N[C@@H]1C(=O)N2C(C(=O)O)=C(COC(C)=O)CS[C@H]12)c1csc(N)n1 [cefotaxime]
susceptibility of isolate (Sensitive to / Resistant to) [1]: Resistant to

O=C(O)c1cn(Cc2cccc3ccccc23)c2ccccc12 [Compound 1a]
CC50 at 72 h [4]: 432 ± 37.5 µM
activity toward hCSE (in words) [5]: did not show noticeable activity
IC50 ([5]; IC50 biochemical assay hCSE): > 500 µM
activity toward bCSE (in words) [6]: did not show noticeable activity
IC50 [6, 11]: > 500 µM

COc1ccc2[nH]c([S+]([O-])Cc3ncc(C)c(OC)c3C)nc2c1 (centres unmarked) [Omeprazole, reference compound]
Stability in SIF, % Remaining at 2 h (in vitro; simulated gi fluid, 2 h, 10 μM): 90.5%
remaining at 2 h, 10 μM (in vitro; simulated gi fluid, Stability in SGF): < 0.1%
remaining at 2 h, 10 μM (in vitro; simulated gi fluid, Stability in SIF): 90.5 ± 10%
